We go through 3 molecules from paper PMC7052517 (iScience, 2020).

Where two headings read alike, the source gives them in different places.

Assay [1] concerns the target T1, α-Synuclein (Homo sapiens, UniProt P37840). In words: isothermal titration calorimetry. It is filed as binding. (In general: In ITC the heat of successive injections is recorded.)
Assay [2] concerns the target T1, α-Synuclein. In words: isothermal titration calorimetry. The assay is classed as binding. The source holds these as a separate data set.

One may read the Kd as the constant that tells how readily two partners part at equilibrium. High values mean weaker binding, low ones tighter binding. In turn, `CC/C=C\C/C=C\C/C=C\CCCCCCCC(=O)O` [ALA, α-linolenic acid] came in with a Kd at α-Synuclein [1] of 221 µM.

At α-Synuclein [1], `CCCCCCCC/C=C\CCCCCCCC(=O)O` [OA, oleic acid] returned a Kd of 179 µM.

At α-Synuclein [2], `CC1=C(/C=C/C(C)=C/C=C/C(C)=C/C(=O)O)C(C)(C)CCC1` [RA, retinoic acid] yielded a Kd of 0.5 µM.
